What was measured:
[1] = system: vancomycin-resistant Enterococcus (VRE); test: agar dilution method, inhibitory effect on VRE; type: cell-based; conditions: for MIC50: Enterococcus, read-out: Minimum inhibitory concentration (MIC50, μg/ml) VRE
Excerpt: (§1) In order to determine the antibacterial activity of these new oxazolidinone-based compounds, an agar dilution method was used to test the inhibitory effect on methicillin-resistant Staphylococcus aureus (MRSA) and vancomycin-resistant Enterococcus (VRE). The bacteria inhibition effect was expressed as minimum inhibitory concentration (MIC50, μg/ml) The test results are shown in the following table.

[2] = system: methicillin-resistant Staphylococcus aureus (MRSA); test: agar dilution method, inhibitory effect on MRSA; type: cell-based; conditions: for MIC50: Staphylococcus aureus, read-out: Minimum inhibitory concentration (MIC50, μg/ml) MRSA
Excerpt: as §1

Compound | MIC50 [1] [µg/mL] | MIC50 [2] [µg/mL] | Minimum inhibitory concentration (MIC50, μg/ml) VRE [1] [µg/mL] | Minimum inhibitory concentration (MIC50, μg/ml) MRSA [2] [µg/mL]
C=Cn1nnc(-c2ccc(-c3ccc(N4C[C@@H](C(C)O)OC4=O)cc3F)cn2)n1.O=P(O)(O)O (stereo partly drawn) [compound 122, (S)-3-(3-fluoro-4-(6-(2-vinyl-2H-tetrazol-5-yl)pyridin-3-yl)phenyl)-5-(1-hydroxyethyl) oxazolidin-2-one phosphate] | 0.9 | 1 | – | –
CCC(O)[C@H]1CN(c2ccc(-c3ccc(-c4nnn(CC)n4)nc3)c(F)c2)C(=O)O1.O=P(O)(O)O (stereo partly drawn) [compound 99, (R)-3-(3-fluoro-4-(6-(2-ethyl-2H-tetrazol-5-yl)pyridin-3-yl)phenyl)-5-(1-hydroxypropyl) oxazolidin-2-one phosphate] | 0.2 | 0.2 | – | –
CCC(O)[C@@H]1CN(c2ccc(-c3ccc(-c4nnn(CC)n4)nc3)c(F)c2)C(=O)O1.O=P(O)(O)O (stereo partly drawn) [compound 100, (S)-3-(3-fluoro-4-(6-(2-ethyl-2H-tetrazol-5-yl)pyridin-3-yl)phenyl)-5-(1-hydroxypropyl) oxazolidin-2-one phosphate] | 0.3 | 0.2 | – | –
CCCn1nnc(-c2ccc(-c3ccc(N4C[C@H](C(O)F)OC4=O)cc3F)cn2)n1.O=P(O)(O)O (stereo partly drawn) [compound 109, (R)-3-(3-fluoro-4-(6-(2-propyl-2H-tetrazol-5-yl)pyridin-3-yl)phenyl)-5-(hydroxyfluoromethyl) oxazolidin-2-one phosphate] | 0.2 | 0.2 | – | –
O=C1O[C@@H](C(O)C(F)F)CN1c1ccc(-c2ccc(-c3nnn(C4CC4)n3)nc2)c(F)c1.O=P(O)(O)O (stereo partly drawn) [compound 145, (R)-3-(3-fluoro-4-(6-(2-cyclopropyl-2H-tetrazol-5-yl)pyridin-3-yl)phenyl)-5-(1-hydroxy-2-difluoroethyl) oxazolidin-2-one phosphate] | – | – | 0.5 | 0.6
Cn1nnc(-c2ccc(-c3ccc(N4C[C@@H](C(O)C(F)(F)F)OC4=O)cc3F)cn2)n1.O=P(O)(O)O (stereo partly drawn) [compound 94, (S)-3-(3-fluoro-4-(6-(2-methyl-2H-tetrazol-5-yl)pyridin-3-yl)phenyl)-5-(1-hydroxy-2-trifluoroethyl) oxazolidin-2-one phosphate] | – | – | 1.5 | 1.5
Cn1nnc(-c2ccc(-c3ccc(N4C[C@H](C(O)F)OC4=O)cc3F)cn2)n1.O=P(O)(O)O (stereo partly drawn) [compound 91, (R)-3-(3-fluoro-4-(6-(2-methyl-2H-tetrazol-5-yl)pyridin-3-yl)phenyl)-5-(hydroxyfluoromethyl) oxazolidin-2-one phosphate] | 1.3 | 1.3 | – | –
C=Cn1nnc(-c2ccc(-c3ccc(N4C[C@H](C(C)O)OC4=O)cc3F)cn2)n1.O=P(O)(O)O (stereo partly drawn) [compound 121, (R)-3-(3-fluoro-4-(6-(2-vinyl-2H-tetrazol-5-yl)pyridin-3-yl)phenyl)-5-(1-hydroxyethyl) oxazolidin-2-one phosphate] | 1.1 | 1.1 | – | –
C=Cn1nnc(-c2ccc(-c3ccc(N4C[C@H](C(OP(=O)(O)O)C(F)F)OC4=O)cc3F)cn2)n1 (stereo partly drawn) [compound 151, (R)-3-(3-fluoro-4-(6-(2-vinyl-2H-tetrazol-5-yl)pyridin-3-yl)phenyl)-5-(1-hydroxy-2-difluoroethyl) oxazolidin-2-one phosphate] | – | – | 0.6 | 0.8
O=C1O[C@@H](CO)CN1c1ccc(-c2ccc(-c3nnn(C4CC4)n3)nc2)c(F)c1.O=P(O)(O)O [compound 83, (R)-3-(3-fluoro-4-(6-(2-cyclopropyl-2H-tetrazol-5-yl)pyridin-3-yl)phenyl)-5-(hydroxymethyl) oxazolidin-2-one phosphate] | 0.7 | 0.8 | – | –
CCn1nnc(-c2ccc(-c3ccc(N4C[C@@H](C(C)O)OC4=O)cc3F)cn2)n1.O=P(O)(O)O (stereo partly drawn) [compound 98, (S)-3-(3-fluoro-4-(6-(2-ethyl-2H-tetrazol-5-yl)pyridin-3-yl)phenyl)-5-(1-hydroxyethyl) oxazolidin-2-one phosphate] | 1.5 | 1.6 | – | –
CCCn1nnc(-c2ccc(-c3ccc(N4C[C@@H](C(O)CC)OC4=O)cc3F)cn2)n1.O=P(O)(O)O (stereo partly drawn) [compound 108, (S)-3-(3-fluoro-4-(6-(2-propyl-2H-tetrazol-5-yl)pyridin-3-yl)phenyl)-5-(1-hydroxypropyl) oxazolidin-2-one phosphate] | 0.4 | 0.5 | – | –
CCCn1nnc(-c2ccc(-c3ccc(N4C[C@@H](C(O)F)OC4=O)cc3F)cn2)n1.O=P(O)(O)O (stereo partly drawn) [compound 110, (S)-3-(3-fluoro-4-(6-(2-propyl-2H-tetrazol-5-yl)pyridin-3-yl)phenyl)-5-(hydroxyfluoromethyl) oxazolidin-2-one phosphate] | 0.2 | 0.2 | – | –
CCC(OP(=O)(O)O)[C@H]1CN(c2ccc(-c3ccc(-c4nnn(C5CC5)n4)nc3)c(F)c2)C(=O)O1 (stereo partly drawn) [compound 115, (R)-3-(3-fluoro-4-(6-(2-cyclopropyl-2H-tetrazol-5-yl)pyridin-3-yl)phenyl)-5-(1-hydroxypropyl)) oxazolidin-2-one phosphate] | – | – | 0.5 | 0.5
CCn1nnc(-c2ccc(-c3ccc(N4C[C@H](C(C)O)OC4=O)cc3F)cn2)n1.O=P(O)(O)O (stereo partly drawn) [compound 97, (R)-3-(3-fluoro-4-(6-(2-ethyl-2H-tetrazol-5-yl)pyridin-3-yl)phenyl)-5-(1-hydroxyethyl) oxazolidin-2-one phosphate] | 1.1 | 1.1 | – | –
CCCn1nnc(-c2ccc(-c3ccc(N4C[C@H](C(O)CF)OC4=O)cc3F)cn2)n1.O=P(O)(O)O (stereo partly drawn) [compound 141, (R)-3-(3-fluoro-4-(6-(2-propyl-2H-tetrazol-5-yl)pyridin-3-yl)phenyl)-5-(1-hydroxy-2-fluoroethyl) oxazolidin-2-one phosphate] | 0.2 | 0.3 | – | –
O=C1O[C@H](CO)CN1c1ccc(-c2ccc(-c3nnn(C4CC4)n3)nc2)c(F)c1.O=P(O)(O)O [compound 84, (S)-3-(3-fluoro-4-(6-(2-cyclopropyl-2H-tetrazol-5-yl)pyridin-3-yl)phenyl)-5-(hydroxymethyl) oxazolidin-2-one phosphate] | 0.4 | 0.4 | – | –
CCCn1nnc(-c2ccc(-c3ccc(N4C[C@@H](C(O)CF)OC4=O)cc3F)cn2)n1.O=P(O)(O)O (stereo partly drawn) [compound 142, (S)-3-(3-fluoro-4-(6-(2-propyl-2H-tetrazol-5-yl)pyridin-3-yl)phenyl)-5-(1-hydroxy-2-fluoroethyl) oxazolidin-2-one phosphate] | 0.2 | 0.2 | – | –
CC(O)[C@@H]1CN(c2ccc(-c3ccc(-c4nnn(C)n4)nc3)c(F)c2)C(=O)O1.O=P(O)(O)O (stereo partly drawn) [compound 88, (S)-3-(3-fluoro-4-(6-(2-methyl-2H-tetrazol-5-yl)pyridin-3-yl)phenyl)-5-(1-hydroxyethyl) oxazolidin-2-one phosphate] | 0.5 | 0.5 | – | –
C=Cn1nnc(-c2ccc(-c3ccc(N4C[C@H](C(O)C(F)(F)F)OC4=O)cc3F)cn2)n1.O=P(O)(O)O (stereo partly drawn) [compound 119, (R)-3-(3-fluoro-4-(6-(2-vinyl-2H-tetrazol-5-yl)pyridin-3-yl)phenyl)-5-(1-hydroxy-2-trifluoroethyl) oxazolidin-2-one phosphate] | – | – | 0.7 | 0.7
CCCn1nnc(-c2ccc(-c3ccc(N4C[C@@H](CO)OC4=O)cc3F)cn2)n1.O=P(O)(O)O [compound 82, (S)-3-(3-fluoro-4-(6-(2-propyl-2H-tetrazol-5-yl)pyridin-3-yl)phenyl)-5-(hydroxymethyl) oxazolidin-2-one phosphate] | 1.2 | 1.2 | – | –
CCC(O)[C@@H]1CN(c2ccc(-c3ccc(-c4nnn(C)n4)nc3)c(F)c2)C(=O)O1.O=P(O)(O)O (stereo partly drawn) [compound 90, (S)-3-(3-fluoro-4-(6-(2-methyl-2H-tetrazol-5-yl)pyridin-3-yl)phenyl)-5-(1-hydroxypropyl) oxazolidin-2-one phosphate] | 2 | 2 | – | –
CCn1nnc(-c2ccc(-c3ccc(N4C[C@H](C(O)C(F)F)OC4=O)cc3F)cn2)n1.O=P(O)(O)O (stereo partly drawn) [compound 133, (R)-3-(3-fluoro-4-(6-(2-ethyl-2H-tetrazol-5-yl)pyridin-3-yl)phenyl)-5-(1-hydroxy-2-difluoroethyl) oxazolidin-2-one phosphate] | – | – | 0.2 | 0.3
C=Cn1nnc(-c2ccc(-c3ccc(N4C[C@@H](C(O)F)OC4=O)cc3F)cn2)n1.O=P(O)(O)O (stereo partly drawn) [compound 126, (S)-3-(3-fluoro-4-(6-(2-vinyl-2H-tetrazol-5-yl)pyridin-3-yl)phenyl)-5-(hydroxyfluoromethyl) oxazolidin-2-one phosphate] | 0.7 | 0.7 | – | –
CCCn1nnc(-c2ccc(-c3ccc(N4C[C@H](CO)OC4=O)cc3F)cn2)n1.O=P(O)(O)O [compound 81, (R)-3-(3-fluoro-4-(6-(2-propyl-2H-tetrazol-5-yl)pyridin-3-yl)phenyl)-5-(hydroxymethyl) oxazolidin-2-one phosphate] | 1.2 | 1.2 | – | –
C=Cn1nnc(-c2ccc(-c3ccc(N4C[C@H](C(O)C5CC5)OC4=O)cc3F)cn2)n1.O=P(O)(O)O (stereo partly drawn) [compound 155, (R)-3-(3-fluoro-4-(6-(2-vinyl-2H-tetrazol-5-yl)pyridin-3-yl)phenyl)-5-(1-hydroxy-1-cyclopropylmethyl) oxazolidin-2-one phosphate] | 0.5 | 0.9 | – | –

— patent US12173020B2, “New-type oxazolidinone compounds and preparation method therefor” (priority 2019, dated 2024)
